Literature values as cited in US20250064782A1, “Methods of Treating Substance Use Disorders Using 5-MeO-DMT” (Journey Colab Corp., priority 2021, published 2025).

Key:
[1] = rodents; Shen et al. 2011, Ermakova et al. 2022
IL-6 = conditions: Uthaug et al. 2020

Q: With `COc1ccc2[nH]cc(CCN(C)C)c2c1` [5-MeO-DMT, 5-methoxy-N,N-dimethyltryptamine] as the compound, how does the “pharmacokinetics of 5-MeO-DMT” value [1] read?
A: Non-linear pharmacokinetics

Q: What about the IL-6 levels post-administration (IL-6) of the same compound?
A: significantly decrease IL-6 levels
